In ChEMBL document CHEMBL1128629, “Mechanism-based inactivation of porphobilinogen synthase: Substitution of ketone functionality in the substrate with a thioester” (Bioorg Med Chem Lett, 1995):

Assays:
Conditions in all cases: Escherichia coli
[1] = target: T1, Delta-aminolevulinic acid dehydratase (Homo sapiens) (UniProt P13716); test: Inhibitory activity against porphobilinogen synthase in presence of 5 mM for 30 min; No loss in activity
T1 sequence (whole entry): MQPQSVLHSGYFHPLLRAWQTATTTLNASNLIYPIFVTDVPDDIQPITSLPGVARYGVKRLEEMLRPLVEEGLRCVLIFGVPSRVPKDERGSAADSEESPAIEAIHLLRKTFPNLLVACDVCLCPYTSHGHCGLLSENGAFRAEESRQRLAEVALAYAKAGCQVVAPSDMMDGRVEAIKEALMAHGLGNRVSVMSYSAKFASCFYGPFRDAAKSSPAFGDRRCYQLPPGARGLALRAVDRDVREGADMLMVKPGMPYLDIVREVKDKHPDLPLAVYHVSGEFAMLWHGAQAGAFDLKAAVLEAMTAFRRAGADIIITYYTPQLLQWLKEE

[2] = target: T1, Delta-aminolevulinic acid dehydratase (Homo sapiens); test: Retention of porphobilinogen synthase activity in presence of 0.3 uM of the compound
[3] = target: T1, Delta-aminolevulinic acid dehydratase (Homo sapiens); test: Inhibitory activity against porphobilinogen synthase in presence of 150 uM over 30 min

NCC(=O)OCC(=O)O
Loss of activity [1]: No loss in activity

NCC(=O)CCC(=O)O
Retention [2]: 80%

NCC(=O)SCC(=O)O
Loss of activity [3]: 80%
